Experimental data reported in patent US20260132123A1, “ABAD INHIBITOR COMPOUNDS” (UNIVERSITY COURT OF THE UNIVERSITY OF ST ANDREWS, priority 2021, published 2026).

Key:
mtsABAD HEK293 cells [1] = assay: Lactate dehydrogenase (LDH) cytotoxicity assay; type: cell-based, human; conditions: 50 μM compound
Method: Cell cytotoxicity was assessed via the measurement of lactate dehydrogenase leakage into the culture medium using a commercially available kit from Pierce (Thermo Scientific cat no. 88953). This was carried out in accordance with the kit guidelines, with the activity of Lactate Dehydrogenase (LDH) being calculated from the change in absorbance at […] as NADH is reduced. HEK293 cells overexpressing mts17β-HSD10 were cultured in phenol-red free media (10% fetal bovine serum (FBS), 1 mM sodium pyruvate, 100 units penicillin, 0.1 mg/mL streptomycin and 2 mM L-glutamine) and seeded at a density of 10,000 cells per well (100 μL, 96 well plates). […] Treated cells were incubated at 37° C. and CO2 (5%) for 24 hours before the LDH assay was performed as per the manufacturer's instructions. Spontaneous control (water) and maximum control (lysis buffer) used in accordance with the kit guide. Absorbance was measured at 490 nm and 680 nm using a SpectraMaxM2e spectrophotometer. The measured LDH activity was used to calculate % cytotoxicity using the following equation: […]

17β-HSD10 = biological target: T1, 17β-HSD10 (Homo sapiens, UniProt Q99714); assay: 17β-HSD10 (ABAD) enzyme inhibition assay, NADH oxidation read at 340 nm (primary screen and dose response); type: biochemical; conditions: for IC50: 17β-HSD10 dose response / inhibition assay, read-out: 17β-HSD10 pIC50 (converted); for EC50 / Max. Effect (%) / Hill Slope / Max. Fit / Min. Fit: recombinant 17βHSD10 enzyme assay; for Hill Slope / Max. Fit / Min. Fit: curve fit
T1 construct: Histev (histidine tag with TEV site) (N, cleaved yes); made in house; host or cells: E. coli BL21-CodonPlus
T1 sequence (Q99714 1-261): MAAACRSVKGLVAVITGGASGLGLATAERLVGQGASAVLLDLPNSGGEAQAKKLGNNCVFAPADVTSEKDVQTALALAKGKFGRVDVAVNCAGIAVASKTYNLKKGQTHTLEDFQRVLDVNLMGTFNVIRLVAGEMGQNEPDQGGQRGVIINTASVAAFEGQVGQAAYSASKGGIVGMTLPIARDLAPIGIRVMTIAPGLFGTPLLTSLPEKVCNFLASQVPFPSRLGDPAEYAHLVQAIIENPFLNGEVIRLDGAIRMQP
Method in brief: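 Screening used a 35 min room-temperature endpoint A340 read after compound (10 μM) and enzyme (2.5 nM, E. coli-expressed, His-tag removed) preincubated 15 min, then 100 μM NADH plus acetoacetyl-CoA added. Dose-response runs tracked absorbance kinetically 45 min; buffer pH 7.4 Tris with BSA, DTT.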

mtsABAD HEK293 cells [2] = assay: Alamar Blue cell viability assay; type: cell-based, human; conditions: 50 μM compound
Method: Cell viability was assessed via fluorescence change using the commercially available Alamar Blue from ThermoFisher. HEK293 cells overexpressing mts17β-HSD10 were cultured in phenol-red free media (10% FBS, 1 mM sodium pyruvate, 100 units penicillin, 0.1 mg/mL streptomycin and 2 mM L-glutamine) and seeded at a density of 10,000 cells per well (100 μL, 96 well plates). […] Treated cells were then incubated at 37° C. and CO2 (5%) for 24 hours before the assay was performed as per the manufacturer's instructions. Fluorescence was measured at 530 nm excitation and 590 nm emission using a SpectraMaxM2e spectrophotometer.

Structure (SMILES)	LDH % Toxicity (50 μM Dose) (mtsABAD HEK293 cells [1]) [%]	IC50 (17β-HSD10) [µM]	figure in brackets after the pIC50 bound (17β-HSD10; Table 3, equals Max. Effect (%) of Table 6)	EC50 (17β-HSD10) [µM]	Max. Effect (%) (17β-HSD10)	Alamar Blue % Viability (50 μM Dose) (mtsABAD HEK293 cells [2]) [%]	Hill Slope (17β-HSD10)	Max. Fit (17β-HSD10)	Min. Fit (17β-HSD10)	fold improvement in activity / potency (17β-HSD10; relative to the parent compound of the sentence)	17β-HSD10 / ABAD activity in words (SAR discussion) (17β-HSD10)
COc1ccc(-c2ccccc2[C@@H]2CCCN2C(=O)c2sccc2C)cn1 (single isomer, unassigned) [ESC1002161]	4.783	> 20	7	> 20	7	92.566					
COc1ccc(-c2ccccc2[C@H]2CCCN2C(=O)c2sccc2C)cn1 (single isomer, unassigned) [ESC1002162]	6.843	0.49		0.49	98	83.498	1	99	0		
COc1ccc(-c2ccccc2[C@H]2CCCN2C(=O)c2sccc2C)cc1 (single isomer, unassigned) [ESC1002331]	5.88					88.56					
COc1ccc(-c2ccccc2[C@@H]2CCCN2C(=O)c2sccc2C)cc1 (single isomer, unassigned) [ESC1002332]	3.52			0.166	99	87.68	1	100	0		
COc1ccc(-c2ccccc2[C@H]2CCCN2C(=O)c2ccccc2F)cn1 (stereo in doubt) [ESC1002119, (2-fluorophenyl)-[2-[2-(6-methoxy-3-pyridyl)phenyl]pyrrolidin-1-yl]methanone]	4.780			4.17	64	79.180	1.3	57	0		
COc1ccc(-c2ccccc2[C@H]2CCCN2C(=O)c2ccc(C)cc2)cn1 (stereo in doubt) [ESC1002120, [2-[2-(6-methoxy-3-pyridyl)phenyl]pyrrolidin-1-yl]-(p-tolyl)methanone]	4.611			> 20	13	81.743					
COc1ccc(-c2ccccc2[C@H]2CCCN2C(=O)c2sccc2C)cc1 [ESC1002089]	5.398					83.064	1.1	98	0	under 3 fold	
Cc1ccsc1C(=O)N1CCC[C@@H]1c1ccccc1-c1cccnc1 [ESC1002090]	5.162			1.15	94	102.627	1.1	97	0		
Cc1ccsc1C(=O)N1CCC[C@@H]1c1ccccc1-c1ccn[nH]1 [ESC1002091]	5.395			3.16	84	84.920	1.2	93			
Cc1ccsc1C(=O)N1CCC[C@@H]1c1ccccc1-c1cn[nH]c1 [ESC1002092]	4.240			1.23	93	80.606	1	98	0		
COCCn1cnc(CN(C)c2cccc(NC(=O)c3ccccc3F)c2)c1 [ESC1002163]	4.975			> 20	0	78.775					
COCCN(C(=O)c1ccccc1F)c1cccc(N(C)Cc2cn(CCOC)cn2)c1 [ESC1002164, 2-fluoro-N-(2-methoxyethyl)-N-[3-[[1-(2-methoxyethyl)imidazol-4-yl]methyl-methylamino]phenyl]benzamide]	5.093			> 20	2	77.951					
CC(C)CN(C(=O)C(C)C)c1cccc(N(C)Cc2cnc[nH]2)c1 [ESC1002165, N-[3-[1H-imidazol-5-ylmethyl(methyl)amino]phenyl]-N-isobutyl-2-methyl-propanamide]	4.074			1.66	94	88.291	1	100	0		
CC(C)CN(C(=O)C1CCCCC1)c1cccc(N(C)Cc2cnc[nH]2)c1 [ESC1002166, N-[3-[1H-imidazol-5-ylmethyl(methyl)amino]phenyl]-N-isobutyl-cyclohexanecarboxamide]	4.554			0.955	99	82.237	0.93	104	0		less potent
CC(C)CN(C(=O)Cc1ccccc1)c1cccc(N(C)Cc2cnc[nH]2)c1 [ESC1002167, N-[3-[1H-imidazol-5-ylmethyl(methyl)amino]phenyl]-N-isobutyl-2-phenyl-acetamide]	4.492			12.6	62	79.269	1	100	0		
CC(C)CN(C(=O)CCc1ccccc1)c1cccc(N(C)Cc2cnc[nH]2)c1 [ESC1002168, N-[3-[1H-imidazol-5-ylmethyl(methyl)amino]phenyl]-N-isobutyl-3-phenyl-propanamide]	4.285			8.91	72	82.648	1.1	100	0		
CC(C)CN(C(=O)c1ccccc1)c1cccc(N(C)Cc2cnc[nH]2)c1 [ESC1002169, N-[3-[1H-imidazol-5-ylmethyl(methyl)amino]phenyl]-N-isobutyl-benzamide]	4.554			0.646	97	84.229	1.1	98	0		
Cc1n[nH]c(Cc2ccccc2)c1-c1ccccc1O [ESC1002170, 2-(5-benzyl-3-methyl-1H-pyrazol-4-yl) phenol]	5.192			0.501	99	79.141	1.1	98	0		
CC(C)CN(C(=O)c1ccccc1F)c1cccc(N(C)Cc2cn[nH]c2)c1 [ESC1002205-02]	5.243					89.638					
CCN(C(=O)c1ccccc1F)c1cccc2c1ncc(=O)n2Cc1cnc[nH]1 [S2−T2, N-ethyl-2-fluoro-N-[1-(1H-imidazol-5-ylmethyl)-2-oxo-1,2 dihydroquinoxalin-5-yl]benzamide]				> 20	4.8						
CCN(C(=O)c1ccccn1)c1cccc(N(C)Cc2cnc[nH]2)c1 [S2−T3, N-ethyl-N-[3-[1H-imidazol-5-ylmethyl(methyl)amino]phenyl]pyridine-2-carboxamide]				> 20	20.3						
CCN(C(=O)c1cccc(F)c1)c1cccc(N(C)Cc2cnc[nH]2)c1 [S2−T5, N-ethyl-3-fluoro-N-[3-[1H-imidazol-5-ylmethyl(methyl)amino]phenyl]benzamide]				> 20	18.4						
CCN(C(=O)C1CCOCC1)c1cccc(N(C)Cc2cnc[nH]2)c1 [S2−T6, N-ethyl-N-[3-[1H-imidazol-5-ylmethyl(methyl)amino]phenyl]tetrahydropyran-4-carboxamide]				> 20	18.4						
CCN(C(=O)C1CCCCN1C)c1cccc(N(C)Cc2cnc[nH]2)c1 (stereo not drawn) [S2−T7, N-ethyl-N-[3-[1H-imidazol-5-ylmethyl(methyl)amino]phenyl]-1-methyl-piperidine-2-carboxamide]				> 20	27.9						
